Assay results: paper PMC6773865, “Functional recruitment of dynamin requires multimeric interactions for efficient endocytosis” (Nature Communications, 2019)
Where no end group is shown, it is not given here.

Columns and labels:
uptake of shiga toxin B = type: cell-based
[1] = system: β2 adrenergic receptor internalization in BSC-1 cells; assay: β adrenergic receptor internalization assay, β2AR; type: cell-based; details: 30 µM, 20 min pre-treatment, isoproterenol-induced
[2] = system: β1 adrenergic receptor internalization in BSC-1 cells; assay: β adrenergic receptor internalization assay, β1AR; type: cell-based; details: 30 µM, 20 min pre-treatment, isoproterenol-induced
[3] = system: uptake of cholera toxin B; type: cell-based
[4] = system: membrane capacitance of NIH 3T3 cells (balance between exocytosis and endocytosis); assay: Cell capacitance in whole cell patch-clamp; type: cell-based; details: 10th minute over 1st minute of whole cell recording; peptides 1 mM; paired t-test
Experimental: Cells were patched with pipettes made of borosilicate glass (GC150F, Harvard Apparatus) and pulled with a vertical Narishige puller (World Precision Instruments). The solution contained (in mM): 130–140 KCH3SO3, 1 EGTA, 0.1 CaCl2, 10–20 HEPES, 4 ATP (sodium or magnesium salt), 0.4 Na-GTP (or GTPγS when indicated), 5 phosphocreatine and 3 sodium ascorbate. pH was adjusted to 7.2 using KOH and osmolarity to ~300 mOsm L^−1. Sodium ascorbate was omitted in earlier recordings but was added for better stability. Chloride ions either came from 2 mM KCl, 10 mM NaCl or 4 mM MgCl2 (when Na-ATP was used) in various trials. All salts were purchased from Sigma-Aldrich. Cells were voltage-clamped at −60 mV with an EPC10 amplifier (HEKA) with series resistance and cell capacitance estimation every 4 s in the whole cell mode. The digital triggers of the amplifier were used to drive the electrovalves for pH changes. Cell viability and dialysis efficiency were made sure of by monitoring […] throughout the recording using the Patchmaster software (HEKA): series resistance should remain below 10 MΩ and holding current should remain above −100 pA. If either of these criteria was not respected (except holding current for recordings in GTPγS, see Supplementary Fig. 3D), the recording was not considered for analysis. On a given experimental day at least one control recording (i.e. without any peptide) was performed to ensure recording quality. All these recordings were pooled in the ‘control’ condition (n = 63 on 42 experimental days). […]
Supplementary Figure 5: Characteristics of the whole cell recordings in the different conditions of this study. A, Scheme of the equivalent electrical circuit of a cell recorded in the whole cell configuration. […]
This is likely due to the activation of GTP dependent trimeric G proteins which activate various channels in the presence of GTPγS, thereby increasing the holding current. […] F, Ratios of Cm recorded during the 10 th minute of recording over Cm recorded during the 1st minute. […]

[5] = system: clathrin mediated endocytosis (TfR-SEP) in NIH 3T3 cells; assay: ppH assay combined with patch-clamp dialysis; type: cell-based; details: for event frequency ratio f = FWC/FCA: average ± SEM, SEM
Experimental: To do so, we monitored cellular endocytic activity using the ppH assay with new developments for fully automated analysis on a large number of cells (See “Methods” and Supplementary Fig. 4). We combined this assay, which monitors in real time the endocytic activity of cells, with the patch-clamp technique in order to dialyse the relevant peptide at a known concentration inside the cellular cytoplasm to inhibit endocytosis acutely. Each recording consisted of 5 min in cell-attached mode (CA) with no dialysis followed by 10 min in whole cell mode (WC) during which the inhibitors were dialysed (Fig. 5a, b). Each recording therefore had its own internal control condition, i.e., the cell-attached mode, from which we obtained the frequency ratio f = FWC/FCA, where F is the event frequency recorded during the indicated mode. Of note, the electrical parameters of patch clamp recordings were similar in all conditions (Supplementary Fig. 5). To assess the innocuousness of this assay, we monitored the endocytic activity of unperturbed cells vs. cells dialysed with a control solution (see methods for composition). Patching the cells minimally affected their endocytic activity over a 10 min period (event frequency f = 67.3 ± 4.3%, n = 60, vs. 90.7 ± 14.9% in no patching recordings, n = 8, p = 0.58).
NIH 3T3 cells (ECACC 93061524) were cultured in DMEM supplemented with 1% sodium pyruvate, 1% glutamax and 10% fetal calf serum (Invitrogen). Cells were incubated at 37 °C in 5% CO2 until use and subcultured every 2 to 4 days for maintenance up to passage 20. Cells were transfected with 1.5 μg of TfR-SEP plasmid 24 h prior to imaging and patch clamp. Care was taken to find the right balance between sufficient fluorescent signal to allow for proper imaging and reasonable overexpression to diminish potential saturation artefacts. Best results were obtained using Fugene 6 (Promega) as the transfection reagent but Lipofectamine 2000 (Invitrogen) has also been used in this study due to a temporary arrest of Fugene 6 production by the provider. All transfections were performed according to the manufacturers’ recommendations. Four to eight hours after transfection, cells were seeded at a density of ~70,000 cells ml^−1 on 18 mm glass coverslips coated with poly-L-lysine (3 min application of 0.1 mM polylysine (Sigma P2636) in borate buffer, pH 8.0 followed by a quick rinse in PBS) and used the next day.
Fast solution exchange was controlled by electro-valves (Lee company) connected to a theta glass pipette (TG150, Harvard Apparatus) pulled to ∼100-μm tip size using a vertical puller (Narishige, World Precision Instruments) placed above the recorded cell. Cells were alternatively perfused with HEPES or MES buffered saline solutions (HBS/MBS) containing (in mM): 135 NaCl, 5 KCl, 0.4 MgCl2, 1.8 CaCl2, 1 D-glucose and 20 HEPES or MES. The pH was adjusted to 7.4 or 5.5 using NaOH and osmolarity to 310–315 mOsm L^−1 with NaCl.
Cells were patched with pipettes made of borosilicate glass (GC150F, Harvard Apparatus) and pulled with a vertical Narishige puller (World Precision Instruments). The solution contained (in mM): 130–140 KCH3SO3, 1 EGTA, 0.1 CaCl2, 10–20 HEPES, 4 ATP (sodium or magnesium salt), 0.4 Na-GTP (or GTPγS when indicated), 5 phosphocreatine and 3 sodium ascorbate. pH was adjusted to 7.2 using KOH and osmolarity to ~300 mOsm L^−1. Sodium ascorbate was omitted in earlier recordings but was added for better stability. Chloride ions either came from 2 mM KCl, 10 mM NaCl or 4 mM MgCl2 (when Na-ATP was used) in various trials. All salts were purchased from Sigma-Aldrich. Cells were voltage-clamped at −60 mV with an EPC10 amplifier (HEKA) with series resistance and cell capacitance estimation every 4 s in the whole cell mode. The digital triggers of the amplifier were used to drive the electrovalves for pH changes. […]

[6] = target: GST-amphSH3 (SH3 domain of murine amphiphysin1 fused to glutathione S-transferase) (not stated | murine) (UniProt Q7TQF7); assay: SEC; analytical size exclusion chromatography, Superdex200 Increase 10/300 GL, PBS + 0.01% Tween-20, 0.75 mL/min
[7] = target: dD15-N (divalent peptide: two D15 motifs linked through their N termini by PEG linkers); assay: SPR; biotinylated peptides immobilised (50-90 RU) on biotin CAPture chips, GST-amphSH3 or Ntr-bSUMO-amphSH3 as analyte; 25 °C; 10 mM sodium phosphate pH 7.4, 150 mM NaCl, 0.01% Tween-20; single cycle kinetics, 1:1 Langmuir fit, estimated KDs
[8] = target: T1, SUMO-amphSH3 (SH3 domain of murine amphiphysin1 fused to the small ubiquitin-like modifier) (murine, UniProt Q7TQF7 607-686); assay: SPR; biotinylated peptides immobilised (50-90 RU) on biotin CAPture chips, SUMO-amphSH3 as analyte; 25 °C; 10 mM sodium phosphate pH 7.4, 150 mM NaCl, 0.01% Tween-20; steady-state (equilibrium) analysis; details: both partners purified
T1 construct: amphiphysin 1, mouse, SH3 domain, residues 607-686, subcloned from pAmph1-mCherry into a modified pET-SUMO vector with a TEV site after the SUMO tag; A TEV cleavage site and multiple cloning site lie between SUMO and the SH3 domain; Monomer by SEC; also called SUMO-SH3; monomeric amphSH3; source: E. coli BL21-CodonPlus (DE3)-RIPL, auto-induction at 16 °C, purified (Ni-NTA, SEC); not shown: SUMO, …
T1 sequence (looked up): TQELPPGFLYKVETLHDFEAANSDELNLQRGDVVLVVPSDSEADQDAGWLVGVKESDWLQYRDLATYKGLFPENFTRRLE

[9] = target: D44 peptide (derived from the dynamin1 PRD, bears motifs A and B); assay: as above
[10] = target: dD15-N (divalent peptide: two D15 motifs linked through their N termini by PEG linkers); assay: as above
[11] = target: dD15-N (divalent peptide: two D15 motifs linked through their N termini by PEG linkers); assay: as above; remark: listed apart in the source

## O=C(N/N=C/c1cc(O)c(O)cc1O)c1cc2ccccc2cc1O [Dyngo4a]
Uptake of shiga toxin B
  inhibition of shiga toxin B uptake: only partially sensitive to inhibition
[1]
  effect on β2AR internalization: fully block
[2]
  effect on β1AR internalization: fully block
[3]
  inhibition of cholera toxin B uptake: only partially sensitive to inhibition

## Nc1nc2c(ncn2[C@@H]2O[C@H](COP(=O)(O)OP(=O)(O)OP(O)(O)=S)[C@@H](O)[C@H]2O)c(=O)[nH]1 [GTPγS, reference compound]
[4]
  change of Cm, Cm(10')/Cm(1'): no significant decrease in Cm
[5]; GTP replaced by GTPγS in the pipette solution, n = 4
  event frequency ratio f = FWC/FCA: 11.2 ± 4.1%

## Ac-YALGGAPPVPSRPGASPDPFGPPPQVPSRPNRAPPGVPRITISDP-NH2 (N-terminus and C-terminus assumed) [D44]
[4]
  change of Cm, Cm(10')/Cm(1'): no significant decrease in Cm
[5]; 100 µM peptide in patch pipette, event frequency 8–10 min whole cell over 3–5 min cell attached, same cell, n = 13 (D15)
  event frequency ratio f = FWC/FCA: 41.4 ± 9.6%
[5]; 1 mM peptide in patch pipette, event frequency 8–10 min whole cell over 3–5 min cell attached, same cell, n = 22 (D15), 15 (D44), 6 (dD15-C)
  event frequency ratio f = FWC/FCA: 20.6 ± 5.2%
[5]; peptide dialysed through patch pipette, 3T3 cells, ppH assay
  inhibition of endocytosis on dialysis: fully inhibited CCV formation

## GST-amphSH3 (SH3 domain of murine amphiphysin1 fused to glutathione S-transferase) (from UniProt Q7TQF7 607-686) (domain or fragment)
[6]
  stoichiometry N: 2
[7]
  Kd: 509 nM

## Ntr-bSUMO-amphSH3 complex (biotinylated SUMO-amphSH3 bound to tetrameric neutravidin) (from UniProt Q7TQF7 607-686)
[7]
  Kd: 4.5 nM

B1: D15 peptide (monovalent, from the dynamin1 PRD, holds motif B) (peptide)
chain: PPPQVPSRPNRAPPG-NH2
modifications: also: N-terminal biotin via TTDS spacer (biotinylated form) or N-terminal acetyl (form used in cells)
[8]
  Kd: 102 ± 2 µM

B2: SUMO-amphSH3 (SH3 domain of murine amphiphysin1 fused to the small ubiquitin-like modifier) (domain or fragment)
chain: T1 sequence (looked up)
[9]
  Kd: 37 µM
[10]
  Kd: 66 µM
[11]
  Kd: 65 µM
